{
  "source": "paper PMC4979060",
  "about": "“Structural basis of metallo-β-lactamase, serine-β-lactamase and penicillin-binding protein inhibition by cyclic boronates” (Nature Communications, 2016)",
  "key": {"BcII": {"target": "T1, BcII (Bacillus cereus, UniProt P04190)", "T1 construct": "made in house; host or cells: E. coli", "T1 sequence (P04190 31-257)": "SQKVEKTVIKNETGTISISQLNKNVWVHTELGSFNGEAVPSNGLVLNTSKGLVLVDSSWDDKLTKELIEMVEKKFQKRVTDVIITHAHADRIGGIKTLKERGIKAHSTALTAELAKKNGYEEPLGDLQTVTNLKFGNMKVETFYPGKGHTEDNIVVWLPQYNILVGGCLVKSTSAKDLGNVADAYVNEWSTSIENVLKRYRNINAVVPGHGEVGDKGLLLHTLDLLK", "test": "Fluorogenic β-lactamase inhibition assay (FC-5 substrate), BcII", "assay_type": "biochemical", "experimental": "(§1) Kinetic and inhibition analyses, and ^19F NMR studies[10] against bacterial β-lactamases were performed as described. The FC-5 cephalosporin[9] was used as substrate for BcII, VIM-2, IMP-1, NDM-1, SPM-1, TEM-1 and OXA-10, meropenem[28] for CphA and nitrocefin[34] for PBP 3 and PBP 5.\n(§2) In brief IC50 values were determined by preincubation of the appropriate amount of enzyme with the cyclic boronates in the assay buffers for 10 min at room temperature prior to the initiation of the assay by the addition of the appropriate substrate. The enzyme concentrations used are the following: 1 nM BcII, 100 nM VIM-2, 10 nM IMP-1, 10 nM NDM-1, 1 nM SPM-1, 1 nM TEM-1, 1 nM OXA-10, 2.5 nM CphA, 4 μM PBP 3 and 5 μM PBP 5; note that the final concentrations are stated. The assay buffers used are the following: 50 mM HEPES, pH 7.2 supplemented with 1 μg BSA, 1 μg ZnSO4 and 0.01% Triton for BcII, VIM-2, IMP-1, NDM-1 and SPM-1, 15 mM MES, pH 6.5 for CphA, 50 mM HEPES, pH 7.2 supplemented with 200 mM NaCl and 0.01% Triton 100 for TEM-1, 100 mM sodium phosphate, pH 7.2 supplemented with 50 mM NaHCO3 and 0.01% Triton 100 for OXA-10 and 50 mM HEPES, pH 7.2 supplemented with 200 mM NaCl and 0.01% Triton 100 for PBP 3 and PBP 5. The amount of substrates used is the following: 5 μM for BcII, VIM-2, IMP-1, NDM-1 and SPM-1, 10 μM for TEM-1 and OXA-10, 125 μM for CphA and 25 μM for PBP 3 and PBP 5; note that the final concentrations are stated.\n(§3) The experiments were performed using a PHERAstar FS microplate reader (BMG Labtech) at room temperature (24–25 °C). All enzymes and inhibitors were prepared in the specific assay buffer. The kinetic values in this study are the means from at least three independent measurements; at least nine different concentrations of the inhibitor were used to determine the kinetic parameters (IC50). The IC50 values were determined using the software package Graph Prism 5."}, "VIM-2": {"target": "T2, VIM-2 (Escherichia coli, UniProt Q5U7L7)", "T2 construct": "made in house; host or cells: E. coli", "test": "Fluorogenic β-lactamase inhibition assay (FC-5 substrate), VIM-2", "assay_type": "biochemical", "experimental": "as §1, §2, §3"}, "SPM-1": {"target": "SPM-1 (Pseudomonas aeruginosa, UniProt Q8G9Q0)", "sequence (Q8G9Q0 entry or part of it)": "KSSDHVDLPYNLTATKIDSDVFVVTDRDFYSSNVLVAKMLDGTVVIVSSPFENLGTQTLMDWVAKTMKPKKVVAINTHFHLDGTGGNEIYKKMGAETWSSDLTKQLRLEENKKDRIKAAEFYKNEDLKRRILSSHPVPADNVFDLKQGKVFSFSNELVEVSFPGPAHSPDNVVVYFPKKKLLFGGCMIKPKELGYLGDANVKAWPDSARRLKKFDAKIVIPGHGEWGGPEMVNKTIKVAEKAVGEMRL", "test": "Fluorogenic β-lactamase inhibition assay (FC-5 substrate), SPM-1", "assay_type": "biochemical", "experimental": "as §1, §2, §3"}, "CphA": {"target": "T3, CphA (Aeromonas hydrophila, UniProt P26918)", "T3 construct": "made in house; host or cells: E. coli", "T3 sequence (P26918 28-254)": "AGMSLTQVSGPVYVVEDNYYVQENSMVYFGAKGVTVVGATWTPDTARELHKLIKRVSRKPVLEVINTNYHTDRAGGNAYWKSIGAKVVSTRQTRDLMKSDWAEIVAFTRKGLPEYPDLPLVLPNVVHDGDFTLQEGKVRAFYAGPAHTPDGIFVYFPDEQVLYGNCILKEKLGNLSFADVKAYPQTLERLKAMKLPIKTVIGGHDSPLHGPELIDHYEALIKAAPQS", "test": "B2 MBL inhibition assay (meropenem substrate), CphA", "assay_type": "biochemical, Aeromonas hydrophilia", "experimental": "as §1, §2, §3"}, "PBP 3": {"target": "T4, PBP 3 (Pseudomonas aeruginosa, UniProt G3XD46)", "T4 construct": "made in house; host or cells: E. coli", "T4 sequence (G3XD46 whole entry)": "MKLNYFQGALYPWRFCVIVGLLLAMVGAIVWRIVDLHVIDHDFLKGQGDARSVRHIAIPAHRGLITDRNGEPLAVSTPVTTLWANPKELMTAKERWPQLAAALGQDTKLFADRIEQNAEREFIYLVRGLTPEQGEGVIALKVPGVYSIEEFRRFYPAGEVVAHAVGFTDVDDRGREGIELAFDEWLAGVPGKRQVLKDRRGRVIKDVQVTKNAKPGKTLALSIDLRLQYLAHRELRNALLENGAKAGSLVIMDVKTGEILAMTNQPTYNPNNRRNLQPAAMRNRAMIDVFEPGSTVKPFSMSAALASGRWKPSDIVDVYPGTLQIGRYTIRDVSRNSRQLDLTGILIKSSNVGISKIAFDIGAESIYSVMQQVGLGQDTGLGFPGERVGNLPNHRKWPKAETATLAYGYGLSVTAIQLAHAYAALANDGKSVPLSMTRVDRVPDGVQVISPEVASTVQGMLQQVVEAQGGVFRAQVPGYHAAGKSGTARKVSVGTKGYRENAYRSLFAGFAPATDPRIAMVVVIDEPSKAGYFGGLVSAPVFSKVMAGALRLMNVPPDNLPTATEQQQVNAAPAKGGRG", "test": "PBP inhibition assay (nitrocefin substrate), PBP 3", "assay_type": "biochemical", "settings": "NI = no inhibition at 100 μM, read-out: IC50 (μM)/pIC50 (converted)", "experimental": "as §1, §2, §3"}, "[1]": {"tested_on": "K. pneumoniae Ecl8 pSU18:NDM-1", "test": "MIC by broth microdilution and checkerboard", "assay_type": "cell-based", "settings": "Klebsiella pneumoniae, read-out: 2 MIC, 2 alone; Ecl8 pSU18:NDM-1 (blaSHV-1; blaNDM-1)", "description": "(§4) Bacterial strains: E. coli ATCC 25922 (ref. [35]) and K. pneumoniae NCTC 5055 (ref. [36]) were used as reference strains. K. pneumoniae Ecl8 (ref. [16]) and its ramR knock-out[37] were used as previously described. K. pneumoniae strain IR8 (ref. [40]), and E. coli strains IR10 and IR60 (ref. [17]) were generous gifts of Prof. T.R. Walsh. Plasmid pSU18:NDM-1 contains the complete blaNDM-1 open reading frame, together with its promoter, cloned into plasmid pSU18 (ref. [41]). The recombinant plasmid was made by PCR amplifying the blaNDM-1 gene and surrounding sequences from E. coli IR10 with primers NDM1F 5′- […] -3′ and NDM1R 5′- GGCGATGACAGCATCATC -3′, TA cloning the amplicon into pCR2.1 TOPO (Invitrogen) and subcloning into pSU18 using BamHI and XbaI.\n(§5) MIC values were determined by broth microdilution, in triplicate, in cation-adjusted Mueller Hinton broth (Sigma) according to the Clinical Laboratory Standards Institute (CLSI) guidelines. Experiments were carried out in microtitre plates (Corning) containing the medium plus meropenem (Sequoia Research Products, Pangbourne, UK) and/or inhibitor 2 as appropriate. Chloramphenicol (20 μg ml^−1) was included in assays of strains (K. pneumoniae Ecl8 and derivative) that carried pSU18 plasmids or derivatives (pSU18:NDM-1) to ensure maintenance of plasmids throughout. Inhibitor 2 was dissolved in DMSO to 100 mg ml^−1 and diluted in broth. The final concentration of DMSO in the assays was kept constant at 0.01% (experiments using 10 μg ml^−1 inhibitor) or 0.03% (experiments using 25 μg ml^−1 inhibitor). Plates were incubated overnight at 37 °C for 18–24 h and absorbance at 600 nm read using a Polarstar Omega (BMG LabTech) plate reader."}, "K. pneumoniae IR8": {"tested_on": "K. pneumoniae IR8", "test": "microbe, parasite or virus in culture", "assay_type": "cell-based", "settings": "Klebsiella pneumoniae; 2 alone; K. pneumoniae IR8 (blaSHV-1; blaDHA-1; blaCTX-M-15; blaTEM-1; blaNDM-1); read-out: 2 MIC", "description": "as §4, §5"}, "E. coli ATCC 25922": {"tested_on": "E. coli ATCC 25922", "test": "MIC by broth microdilution", "assay_type": "cell-based", "settings": "data not shown", "description": "as §4, §5"}, "E. coli IR10": {"tested_on": "E. coli IR10", "test": "MIC by broth microdilution", "assay_type": "cell-based", "settings": "Escherichia coli, IR10, read-out: 2 MIC", "description": "as §4, §5"}, "E. coli IR60": {"tested_on": "E. coli IR60", "test": "MIC by broth microdilution", "assay_type": "cell-based", "settings": "Escherichia coli, IR60, read-out: 2 MIC", "description": "as §4, §5"}, "[2]": {"tested_on": "K pneumoniae Ecl8 ΔramR pSU18:NDM-1", "test": "MIC by broth microdilution", "assay_type": "cell-based", "settings": "Klebsiella pneumoniae, read-out: 2 MIC, 2 alone; Ecl8 ΔramR pSU18:NDM-1 (blaSHV-1; blaNDM-1)", "description": "as §4, §5"}, "[3]": {"tested_on": "K pneumoniae Ecl8 ΔramR pSU18", "test": "MIC by broth microdilution", "assay_type": "cell-based", "settings": "Klebsiella pneumoniae, read-out: 2 MIC", "description": "as §4, §5"}, "K. pneumoniae Ecl8 pSU18": {"tested_on": "K. pneumoniae Ecl8 pSU18", "test": "MIC by broth microdilution", "assay_type": "cell-based", "settings": "Klebsiella pneumoniae, ECL8PSU18, read-out: 2 MIC", "description": "as §4, §5"}, "K. pneumoniae NCTC 5055": {"tested_on": "K. pneumoniae NCTC 5055", "test": "MIC by broth microdilution", "assay_type": "cell-based", "settings": "data not shown", "description": "as §4, §5"}},
  "data": [
    {"smiles": "NCc1ccc(C(=O)N[C@H]2Cc3cccc(C(=O)O)c3O[B-]2(O)O)cc1", "note": "[compound 2]", "values": [
      {"measurement": "pIC50", "setting": "BcII", "value": 6.5},
      {"measurement": "IC50", "setting": "BcII; 10 min preincubation", "value": 300, "unit": "nM"},
      {"measurement": "pIC50", "setting": "VIM-2", "value": 8.5},
      {"measurement": "IC50", "setting": "VIM-2; 10 min preincubation", "value": 3, "unit": "nM"},
      {"measurement": "pIC50", "setting": "SPM-1", "value": 4.7},
      {"measurement": "IC50", "setting": "SPM-1; 10 min preincubation", "value": 16.7, "unit": "µM"},
      {"measurement": "pIC50", "setting": "CphA", "value": "> 4"},
      {"measurement": "IC50", "setting": "CphA; 10 min preincubation", "value": "> 100", "unit": "µM"},
      {"measurement": "IC50", "setting": "PBP 3", "value": "> 100", "unit": "µM"},
      {"measurement": "MIC", "setting": "[1]", "value": "> 128", "unit": "µg/mL"},
      {"measurement": "MIC", "setting": "K. pneumoniae IR8", "value": "> 128", "unit": "µg/mL"},
      {"measurement": "antibacterial activity of 2 alone (highest concentration without activity)", "setting": "E. coli ATCC 25922", "value": "> 128", "unit": "µg/mL"},
      {"measurement": "MIC", "setting": "E. coli IR10", "value": "> 128", "unit": "µg/mL"},
      {"measurement": "MIC", "setting": "E. coli IR60", "value": "> 128", "unit": "µg/mL"},
      {"measurement": "MIC", "setting": "[2]", "value": "> 128", "unit": "µg/mL"},
      {"measurement": "MIC", "setting": "[3]", "value": "> 128", "unit": "µg/mL"},
      {"measurement": "MIC", "setting": "K. pneumoniae Ecl8 pSU18", "value": "> 128", "unit": "µg/mL"},
      {"measurement": "antibacterial activity of 2 alone (highest concentration without activity)", "setting": "K. pneumoniae NCTC 5055", "value": "> 128", "unit": "µg/mL"}
    ]}
  ]
}
